SMILES strings stand for the structures. Several values for one entry are separate records, joined by “and”; a condition that tells them apart may be missing. Equal entries are not always repeated.

The text below walks through data of PubChem BioAssay AID1985 (Southern Research Specialized Biocontainment Screening …, 2009).

The test system of the experiment is S. Typhi PhoP-promoter GFP reporter, fluorescence, 4 h. Briefly: modified counter assay using GFP fluorescence, PhoP regulon inhibitor project, dose response (AID 1985).

The term IC50 denotes the concentration at which inhibition is half-maximal. As for `CN1CCN(CCCN2c3ccccc3Sc3ccc(C(F)(F)F)cc32)CC1`, the IC50 was 124 µM.

Take `Cn1ncnc2c(=O)n(C)c(=O)nc1-2`: the IC50 was 0.741 µM.

With `O=C(CCC(=O)Nc1ccc(Cl)cc1Cl)N/N=C/c1ccc([N+](=O)[O-])o1`, the IC50 was 33.9 µM.

Consider `C#CCOCCOCCOCCNc1nc(N2CCN(C(=O)CCCCCCCCCCNC(=O)[C@H](CCCCN)n3cc(CCO)nn3)CC2)nc(N2CCN(C(=O)CCCCCCCCCCNC(=O)[C@H](CCCCN)n3cc(C[C@@H](C)CC)nn3)CC2)n1`, for which the IC50 was 38 µM.

Regarding `CCCCCCCCCC[N+](C)(C)CC/C=C1/c2ccccc2Sc2ccc(Cl)cc21`, the 50% inhibitory concentration (IC50) is 16.5 µM.

`O=C(c1ccc([N+](=O)[O-])o1)N1CCOCC1`: the IC50 is 24.4 µM.

`CCOC(=O)c1ccc(CNCc2ccc(Br)cc2)cc1`: the IC50 is 53.8 µM.

Take `CCn1cc(C(=O)NCCN(C)C)c(=O)c2cc(F)c(N3CCN(C)CC3)cc21`: the IC50 is 34 µM.

`O=C1C(Cl)=C(NCc2cccnc2)C(=O)c2ccccc21`: the IC50 is 41.6 µM.

Take `CCCCCCCCNc1ncnc2ccccc12`: the IC50 was 35.8 µM.

Take `O=C(Cn1nc(C(F)F)cc1C(F)F)NNC(=S)Nc1ccc([N+](=O)[O-])cc1`: the IC50 is 64.2 µM.

Consider `NC(=O)SCC(=O)Nc1cccc(Cl)c1`, for which the IC50 is 29.9 µM.

Take `O=Nc1c(O)c2ccccc2c2ccccc12`: the IC50 is 24.6 µM.

Turning to `CC(=O)NC(c1cccs1)c1cc([N+](=O)[O-])c2cccnc2c1O` (configuration not stated), the IC50 was 31.3 µM.

For `Oc1ccccc1C(Nc1nccs1)c1ccc2cccnc2c1O` (configuration not stated), the IC50 was 34.8 µM.

`Cc1cc(N=Nc2ccc(C)c(N=Nc3cc(C)c(N)cc3N)c2)c(N)cc1N`: the IC50 is 108 µM.

In the case of `CCN(CC)c1ccc(/C=N/NC(=O)c2ccc3nc[nH]c3c2)c(O)c1`, the IC50 is 46.6 µM.

Consider `CC1(C)N=C(N)NC(Nc2ccc(Br)cc2)=N1`, for which the IC50 was 76.4 µM.

In the case of `CN1CCN(C2=Cc3cc(Cl)ccc3Sc3cc(F)ccc32)CC1`, the half-maximal inhibitory concentration (IC50) was 137 µM.

As for `Cc1ccc2sc(N(CCCN(C)C)C(=O)c3ccc(Br)s3)nc2c1C`, the IC50 was 120 µM.

As for `Nn1cnnc1N/N=C\c1ccc(-c2ccccc2[N+](=O)[O-])o1`, the IC50 was 29 µM.

In the case of `CN(C)CCCN(C(=O)CCc1ccccc1)c1nc2ccc(Br)cc2s1`, the IC50 was 110 µM.

With `C=CC1=C(C(=O)O)N2C(=O)[C@@H](NC(=O)/C(=N/OCC(=O)O)c3csc(N)n3)[C@H]2SC1`, the IC50 is 21 µM.

With `CC1CCC(C(C)C)C(OC(=O)Cn2c(COc3ccccc3)[n+](C)c3ccccc32)C1` (configuration not stated), the IC50 was 51.5 µM.

`CN1CCN(CCCN2c3ccccc3Sc3ccc(Cl)cc32)CC1`: the IC50 is 132 µM and 79.2 µM.

As to `Cc1cccc(C(=O)NCCC(=O)Nc2ccc(F)c([N+](=O)[O-])c2)c1`, the IC50 is 144 µM.

Take `OCCNCc1cc(Br)ccc1OCc1ccc(Cl)cc1`: the IC50 was 121 µM.

Consider `CCSc1ccc2c(c1)N(CCCN1CCN(C)CC1)c1ccccc1S2`, for which the IC50 is 131 µM.

Regarding `O=C1C(SCCO)=C(SCCO)C(=O)c2ccccc21`, the half-inhibitory concentration (IC50) is 122 µM.

As to `NC(N)=N/N=C/c1ccc(OCc2ccc(Cl)cc2)cc1`, the IC50 is 36.3 µM.

Consider `O=C(NC(=S)NNC(=O)c1ccco1)c1ccc(Br)cc1`, for which the IC50 was 69 µM.

As for `CS(=O)(=O)c1ccc([C@@H](O)[C@@H](CF)NC(=O)C(Cl)Cl)cc1`, the IC50 is 4.74 µM.

Regarding `O=C(Oc1c(Cl)cc(Cl)c2cccnc12)c1ccco1`, the IC50 was 11.9 µM.

Regarding `COc1ccc(NC(=O)c2[nH]ncc2[N+](=O)[O-])cc1`, the IC50 is 40.3 µM.

Regarding `CSc1ccc2c(c1)C(N1CCN(C)CC1)Cc1ccccc1S2` (configuration not stated), the IC50 is 55.6 µM.

For the compound `CN(C)CC/C=C1\c2ccccc2Sc2cc(F)c(Cl)cc21`, the concentration for half-maximal inhibition (IC50) was 65.4 µM.

`O=Cc1ccc(O)cc1O`: the concentration for half-maximal inhibition (IC50) is 109 µM.

With `CCN(CC)C(=S)SSC(=S)N(CC)CC`, the IC50 was 21.8 µM.

Regarding `C=CCNc1ncnc2c1[nH]c1ccc(Cl)cc12`, the IC50 was 49.2 µM.

`N=c1n(CCN2CCCCC2)c2ccccc2n1CC(O)COc1ccccc1` (configuration not stated): the half-maximal inhibitory concentration (IC50) is 90.2 µM.

Take `CN1CCN(C(c2ccc(Br)cc2)c2cc(Cl)c3cccnc3c2O)CC1` (configuration not stated): the IC50 was 33.6 µM.

For `O=Nc1ccc(O)c2ncccc12`, the half-maximal inhibitory concentration (IC50) was 24.6 µM.

Take `Oc1c(Br)cc(Br)cc1C=NCc1ccc(F)cc1`: the 50% inhibitory concentration (IC50) is 54.4 µM.

Take `CCN(CC)c1ccc(CNc2nc3ccccc3n2C)cc1`: the IC50 is 97.3 µM.

For `O=C(NNC(=S)NC(=O)c1ccco1)c1ccc(F)cc1`, the IC50 was 96.8 µM.

Take `C#CCOCCOCCOCCNc1nc(N2CCN(C(=O)CCCCCCCCCCNC(=O)Cn3cc(CCCCCN)nn3)CC2)nc(N2CCN(C(=O)CCCCCCCCCCNC(=O)[C@H]([C@@H](C)CC)n3cc(CCCCN=C(N)N)nn3)CC2)n1`: the half-inhibitory concentration (IC50) was 36.8 µM.

Regarding `CCCCOCCCNc1ncnc2c1[nH]c1ccccc12`, the IC50 is 72.8 µM.

Take `O=[N+]([O-])c1cccc(NNS(=O)(=O)c2ccccc2F)c1`: the IC50 was 8.04 µM.

Regarding `O=c1[nH]c(=S)ccn1C1OC(CO)C(O)C1O` (configuration not stated), the IC50 was 1.74 µM.

As for `O=C(Nc1ccc([N+](=O)[O-])cc1Cl)c1cc(Cl)ccc1O`, the IC50 is 76 µM.

For the compound `CCOC(=O)N/N=C(/C)c1ccc([N+](=O)[O-])o1`, the IC50 is 45.8 µM.

In the case of `Cc1ccc(Nc2cc(C)nn2-c2nc(C)cc(=O)[nH]2)cc1`, the IC50 is 10.2 µM.

Regarding `CCCOc1ccc(C(=O)NNC(=S)NC(C)=O)cc1`, the concentration for half-maximal inhibition (IC50) is 52.3 µM.

With `CC1=NOC(=O)/C1=C/c1ccc(O)cc1`, the IC50 is 117 µM.

`CCCCCCCCCCOC(=O)Cn1c(COc2ccccc2C)[n+](C)c2ccccc21`: the IC50 is 21.3 µM.

For the compound `O=c1[nH][nH]c(-c2ccccc2O)c1C(C[N+](=O)[O-])c1ccc(Br)cc1` (configuration not stated), the IC50 was 71.7 µM.

For `O=C(Nc1cccc(Br)c1)c1cc2ccccc2o1`, the IC50 is 47.4 µM.

On to `CCCCCCCCCCCCCCCC[N+](C)(C)CCN(Cc1ccc(OC)cc1)c1ncccn1`, for which the IC50 was 23.9 µM.

For the compound `O=C(N/N=C\c1ccc(Cl)s1)c1cccs1`, the IC50 is 32.9 µM.

On to `Cc1ccc(C(c2cc(Cl)c3cccnc3c2O)N2CCN(C)CC2)cc1` (configuration not stated), for which the IC50 was 48.2 µM.

As to `OC(CNCCc1ccc(Cl)cc1Cl)COc1ccccc1` (configuration not stated), the concentration for half-maximal inhibition (IC50) was 71.7 µM.

Regarding `O=C(CCNC(=O)c1ccco1)Nc1ccc(SC(F)F)cc1`, the 50% inhibitory concentration (IC50) is 74.7 µM.

On to `O=C(N[C@H](CO)[C@H](O)c1ccc([N+](=O)[O-])cc1)C(Cl)Cl`, for which the IC50 was 2.71 µM.

With `CC(C(=O)NC1C=CS(=O)(=O)C1)N1C(=O)/C(=C/c2ccc(Cl)cc2)SC1=S` (configuration not stated), the IC50 was 22.2 µM.

Consider `CCCCCCCCCCOC(=O)Cn1c(COc2cccc(OC)c2)[n+](C)c2ccccc21`, for which the IC50 was 18.1 µM.

Regarding `O=C(N/N=C/c1cc([N+](=O)[O-])ccc1O)C(O)(c1ccccc1)c1ccccc1`, the IC50 is 60.4 µM.

For `S=C(Nc1cc(Cl)cc(Cl)c1)NC1CCN(Cc2ccccc2)CC1`, the IC50 was 36.7 µM.

With `CCCCN(CCCC)C(=O)c1cn(CC)c2cc(N3CCN(C)CC3)c(F)cc2c1=O`, the IC50 was 7.43 µM.

For the compound `Cn1c(SCC(=O)N/N=C/c2ccc([N+](=O)[O-])s2)nnc1-c1ccc(Cl)cc1`, the IC50 is 38.9 µM.

`Cc1ccc(OCc2nnc(NC(=O)c3cccnc3)s2)cc1`: the 50% inhibitory concentration (IC50) is 13.9 µM.

On to `O=c1c2c([nH]c3ccccc13)CCCCC2`, for which the IC50 was 78.4 µM.

As to `NC1=NC2(CCCCC2)N=C(Nc2ccc(Br)cc2)N1`, the half-inhibitory concentration (IC50) was 28.8 µM.
